Data: US20030073740A1, “Methods for treatment of lupus erythematosus” (priority 2001, published 2003)
Structures can show the parent of a compound that is named as a salt.

Experiments:
rats [1] = assay: 28-day study in rats; type: in vivo
Procedure: A 28-day study in rats was also carried out at 0, 50, 500 and 2000 mg/kg/day.

U937 cells = assay: apoptosis induction of U937 cells (active caspase 3 immunofluorescence); type: cell-based; design: apoptosis as reflected by active caspase 3 (FIG. 8): dose or concentration left out as unconfirmed; conditions: for Percentage of apoptotic cells / Number of apoptotic cells: 24 hrs; for Number of apoptotic cells: active caspase 3, 500 cells scored
Procedure: U937 cells (from ATCC Rockville, Md.) were grown in RPMI media supplemented with 5% FCS, glutamine, antibiotic/antimycotic and sodium pyruvate. Total RNA was isolated from two U937 cultures, one treated with 5 nM TPA for 48 hours and one grown in normal media as listed above, using the Rouche High Pure RNA Isolation Kit (cat# 1 828 665) as per manufacturers protocol. cDNA was then synthesized from the total RNA using GibcoBRL SuperscriptII (Cat # 18064-022) reverse transcriptase as per manufacturers protocol. The resulting cDNA was used as a template for RT-PCR reactions using primer sets specific for PDE2 (forward: […], reverse: […]) or PDE5 (forward: […], reverse: […]). mRNA for PDE2 and 5 were both present in the untreated U937 cells. Upon treatment with TPA, the relative amounts of PDE2 mRNA increased 5 fold. Therefore, U937 cells treated with TPA and driven to differentiate into an activated macrophage like state have elevated levels of PDE2 mRNA (see FIG. 1).
The presence of PDE2 and PDE5 protein within U937 cells was confirmed by indirect immunofluorescence (IIF). U937 cells were cultured as above. Two U937 cultures, one grown in the presence of 5 nM TPA for 48 hours and one grown in normal media were processed. All cultures were collected by centrifugation (Shandon Cytospin, 2 minutes @ 600 rpm) onto poly-L lysine-coated slides and immediately fixed in fresh 3% paraformaldehyde buffered in PBS for 10 minutes. Adherent cultures were grown on coverslips and fixed as above. Cells were permeablized in 0.2% triton-100 for 2 minutes. Slides were blocked with blocking buffer (5% goat serum, 5% glycerol, 1% gelatin from cold water fish skin and 0.04% NaN3 in PBS) for 1 hour at room temperature.
Adherent cells were dislodged by treatment with trypsin EDTA for 5 minutes at 37° C. Cells were then processed for IIF as described above, except that an antibody specific for active caspase 3 was used (as per manufacturer's protocol) instead of antibodies to PDE2 or 5 (Promega Cat. #G7481). The anti-active caspase 3 antibody was diluted 1:200 in blocking buffer and processed according to the manufacturer's protocol. The resulting slides were observed under a fluorescent microscope and a digital images were obtained.
The level of apoptosis in U937 cells was quantified by scoring 500 consecutive cells for the presence of active caspase 3.
The cells were harvested and processed for IIF as described above using an antibody that specifically recognizes active caspase 3. […] Therefore, the inhibition of only PDE4 or PDE5 alone (i.e. without the inhibition of PDE2) is not sufficient to induce apoptosis in U937 cells.

PDE1 = assay: PDE inhibition, similar protocols: PDE1; type: biochemical
dogs [2] = assay: 91-day oral study in dogs; type: in vivo
rats [3] = assay: acute toxicity study in rats; conditions: rat, in vivo
PDE4 = assay: PDE inhibition, similar protocols: PDE4; type: biochemical
dogs [4] = assay: acute and seven-dose toxicity in dogs (capsules); conditions: dog, in vivo
Procedure: Therefore, these dogs were subsequently administered seven consecutive doses of 1000 mg/kg/day.

rats [5] = assay: seven-day dose-range finding study in rats; type: in vivo; conditions: seven days
[6] = target: T1, GST-cGB-PDE5 fusion protein (cGMP binding sites of human PDE5A) (Homo sapiens, UniProt O76074); assay: cGMP binding assay with GST-cGB-PDE5 fusion protein
T1 construct: made in house; host or cells: E. coli BL21 (DE3)
Description: RT-PCR method is used to obtain the cGB domain of PDE5 with forward and reverse primers designed from bovine PDE5A cDNA sequence (McAllister-Lucas L. M. et al, J. Biol. Chem. 268, 22863-22873, 1993) and the selection among PDE 1-10 families. 5′-3′, Inc. kits for total RNA followed by oligo (dT) column purification of mRNA are used with HT-29 cells. […] It is then cloned into pGEX-5X-3 glutathione-S-transferase (GST) fusion vector (Pharmacia Biotech )with tac promoter, and EcoR1 and XhoI cut sites. The fusion vector is then transfected into E. Coli BL21 (DE3) bacteria (Invitrogen). The transfected BL21 bacteria is grown to log phase, and then IPTG is added as an inducer. The induction is carried at 20° C. for 24 hrs. The bacteria are harvested and lysed. The soluble cell lysate is incubated with GSH conjugated Sepharose 4B (GSH-Sepharose 4B). The GST-cGB-PDE5 fusion protein can bind to the GSH-Sepharose beads, and the other proteins are washed off from beads with excessive cold PBS.
Then, the mixture is transferred to Brandel MB-24 cell harvester with GF/B as the filter membrane followed by 2 washes with 10 mL of cold 5 mM potassium buffer(pH 6.8). The membranes are then cut out and transferred to scintillation vials followed by the addition of 1 mL of H2O and 6 mL of Ready Safe™ liquid scintillation cocktail to each vial. The vials are counted on a Beckman LS 6500 scintillation counter.
The quenching by filter membrane or other debris are also calibrated.

[7] = test system: TNF-α secreted by TPA-induced U937 cells; assay: TNF-α immunoassay on U937 cell culture media; type: cell-based
Procedure: One function of macrophages is to modulate the activity of other inflammatory cells through various cytokine molecules.
TNF-α levels in the cell culture media were determined by using the TNF-α Immunoassay from R&D Systems (Cat. # DTA50) according to the manufacturer's protocol.

rats [8] = assay: long-term (91-day) safety assessment study in rats; type: in vivo
Description: These changes were not associated with any gross clinical abnormality.

human patients = assay: single, escalating dose human clinical trial (safety); type: in vivo; conditions: oral, 50, 100, 200 and 400 mg BID
PDE5 = target: T2, PDE5 (Homo sapiens, UniProt O76074); assay: competitive binding (with cGMP) to PDE5
T2 construct: partially purified cGMP-specific PDE isolated from HT-29 cells; endogenous in cells; host or cells: HT-29

[9] = 28 days, 50, 500 and 2000 mg/kg/day
[10] = U937, TPA 5 nM, 16 hrs, then 1 uM

## CC1=C(CC(=O)NCc2ccccc2)c2cc(F)ccc2/C1=C\c1ccncc1 [Compound 38, (Z)-5-Fluoro-2-Methyl-(4-Pyridylidene)-3-(N-Benzyl) Indenylacetamide Hydrochloride]
Rats [1]; 28 days
  macroscopic tissue changes at necropsy: No macroscopic tissue changes
Rats [1]; 28 days, 2000 mg/kg/day
  liver weights: statistically significant increase in liver weights
  thyroid weights: statistically significant increases in thyroid weights
Rats [1]; [9]
  body weight changes, ophthalmoscopic examinations, hematological and blood chemistry values, urinalysis: unremarkable
  clinical observations: no abnormal clinical observations
Rats [1]; 28 days, lower doses
  slight liver and thyroid weight increases: not statistically significant
Rats [1]; 28 days, small number of animals at 2000 mg/kg/day, one female at 500 mg/kg/day
  histopathological evaluation of tissues: traces of follicular cell hypertrophy, increased numbers of mitotic figures (suggestive of possible cell proliferation) in the thyroid gland and mild centrilobular hypertrophy in the liver
U937 cells; [10]
  Percentage of apoptotic cells: 78%
  Number of apoptotic cells: 392/500
U937 cells; U937, no TPA treatment, 1 uM
  Percentage of apoptotic cells: 75%
  Number of apoptotic cells: 375/500
U937 cells; U937 cells treated with compound 38
  apoptosis as reflected by active caspase 3 (FIG. 8): undergoing apoptosis
U937 cells; differentiated and non-differentiated U937 cell line
  induction of apoptosis: causes the induction of apoptosis
PDE1
  IC50: 3 µM
Dogs [2]; 91 days
  tolerability: well tolerated
Dogs [2]; 91 days, 150 and 300 mg/kg/day
  feces observation: Orange discoloration of the feces
Dogs [2]; 91 days, highest dose group
  body weights: Slightly lowered body weights
  liver weights: increased liver weights
  microscopic alterations (liver): no microscopic alterations
Dogs [2]; 91 days, oral
  route of elimination (suggested by feces colour): most of Compound 38 was being eliminated via the feces
Dogs [2]; oral, 91 consecutive days, 50, 150 and 300 mg/kg/day
  toxicological effects: no toxicological effects
Rats [3]; ip, 1000 mg/kg
  body weight gain: reduced body weight gain
  necropsy findings: mesenteric adhesions seen in some animals
Rats [3]; po, 2000 mg/kg
  body weight gains: slightly reduced
PDE4
  IC50: 6 µM
Dogs [4]; 1000 mg/kg
  signs of toxicity: no signs of toxicity
Dogs [4]; 1000 mg/kg/day
  signs of drug-related effects: At no time in either dosing phase were any obvious signs of drug-related effects observed
Rats [5]; 50 mg/kg/day
  signs of toxicity: no observable signs of toxicity
Rats [5]; 500 mg/kg/day
  treatment-related effects: increase in absolute and relative liver weights in female rats
Rats [5]; 2000 mg/kg/day
  treatment-related effects: labored breathing and/or abnormal respiratory sounds, decreased weights gains and food consumption in male rats, and increased liver weights in female rats
Rats [5]; any dose level (50, 500, 2000 mg/kg/day)
  hematology, blood chemistry, microscopic pathology: No hematological or blood chemistry changes nor any microscopic pathology changes
[6]
  binding to the cGMP-binding site of PDE5: does not bind
[7]
  level of TNF-α secreted (FIG. 12): significantly reduced
Rats [8]; 91 days
  clinical biochemistry and hematology: no changes in clinical biochemistry and hematology
Rats [8]; 91 days, 500 mg/kg/day
  microscopic finding, follicular cells: follicular cell hypertrophy
Rats [8]; 91 days, 200 and 500 mg/kg/day
  microscopic finding, kidneys: increase in accumulation of hyalin droplets in the kidneys
  microscopic finding, liver: slight hepatocellular hypertrophy
Rats [8]; 91 days, males and females at 200 and 500 mg/kg/day
  organ weights: dose-related trend to increased liver and thyroid/parathyroid weights
Rats [8]; oral, 91 consecutive days, 50, 200 and 500 mg/kg/day
  toxicological effects: did not produce any major toxicological effects
Human patients
  side effects: no significant side effects
PDE5
  competitive (with cGMP) binding to PDE5: does competitively (with cGMP) bind
